What was measured:
[1] = system: Soya (glycine max) Variant Deltapine; test: Biological evaluation of low phytotoxicity on glyphosate-resistant soya; format: in vivo; settings: glyphosate tank mixes
Procedure: For the greenhouse tests, maize (cultivar Amadeo) and Chenopodium album was sown or potted in loamy sandy soil to a depth of 1-2 cm. When the plants had reached a growth height of 10 to 25 cm (around 10 to 21 days after sowing), the spray mixtures were applied to the plants in a spraying cabin.
The temperatures in the experimental period, which lasted for 3 to 4 weeks, were between 18-35° C. During this time, the experimental plants received optimum watering, with nutrients being supplied via the water used for watering.
The herbicidal activity was evaluated by awarding scores to the treated plants in comparison to the untreated control plants (Table 1 and 2). The evaluation scale ranges from 0% to 100% activity. 100% activity means the complete death at least of those parts of the plant that are above ground. Conversely, 0% activity means that there were no differences between treated and untreated plants.
The biological evaluation was made as described in Example 6. The tank mixes were applied at a application rate of 375 l/ha (125 or 250 g of glyphosate free acid/ha and 300 g of adjuvant/ha). The adjuvant Ad1 is an aqeuous solution of 200 g/l Genamin® T150 (a tallow fatty amine ethoxylate with 15 EO). The adjuvant Ad2 is Genamin® T050 (a tallow fatty amine ethoxylate with 5 EO).
Soya (glycine max) Variant Deltapine was genetically engineered to resist glyphosate.

[2] = typical value; cited from earlier work
[3] = pH of tank mix; format: physicochemical
Procedure: According to the invention, an aqueous tank mix which has a tank mix acidity of at least pH 5.0 was prepared. Preferably, the tank mix acidity corresponds to a pH of at least 6.0, better of at least 7.0, more preferably of at least 7.5, especially preferred of at least 8.0 and in particular of at least 8.5. The tank mix acidity may correspond to a pH of up to 13.0, preferably of up to 11.0 and in particular of up to 9.0. The tank mix acidity is usually determined as pH value at 20° C. without dilution of the tank mix.

[4] = Volatility: loss of dicamba from tank mix on petri dish; format: physicochemical; settings: 70° C., 24 h
Procedure: The volatility was determined by analyzing the loss of material by HLPL at 70° C. after 24 h at atmospheric pressure. A sample of the aqueous tank mix (300 l/ha) was placed on the petri dish with a defined area (corresponding to a desired field application rate, such as 500 g/ha pesticide).
The application rate was 500 g/ha dicamba (free acid), 1000 g/ha potassium glyphosate, 300 g/ha Genamin® T050 (“Ad2”), 300 g/ha Preference® (“Ad3”) and optionally 250, 500 or 1000 g/ha K2CO3. Deionised water (hardness <1° dH) was used to prepare the samples. Dicamba BAPMA refers to the bis(3-aminopropyl)methylamine salt of dicamba.

O=C([O-])[O-].[K+].[K+] [Example K2CO3, K2CO3]
phytotoxity effect on plants of addition of K2CO3 [1]: no phytotoxity effect

O=C(O)CNCP(=O)(O)O [glyphosate]
pKa for the amine [2]: 11.0 | pKa for the carboxylic acid [2]: 2.3 | pKa for the first phosphonic acid [2]: 0.8 | pKa for the second phosphonic acid [2]: 6.0

CN(CCCN)CCCN.COc1c(Cl)ccc(Cl)c1C(=O)O [Dicamba BAPMA, bis(3-aminopropyl)methylamine salt of dicamba]
pH of tank mix ([3]; Table 6 tank mixes, deionised water (hardness <1° dH)): 6.3 | Loss of dicamba, Loss (wt %) ([4]; 500 g/ha dicamba, 1000 g/ha potassium glyphosate, 300 g/ha Ad2, 300 g/ha Ad3, deionised water): <1 wt %

COc1c(Cl)ccc(Cl)c1C(=O)O [Dicamba free acid, dicamba]
pH of tank mix ([3]; Table 5 tank mixes, 500 g/ha dicamba, 300 l/ha): 3.0 | Loss of dicamba, Loss (wt %) ([4]; atmospheric pressure, application rate 500 g/ha dicamba): 80 wt %

— US20140080706A1, “METHOD OF PREPARING AN AQUEOUS TANK MIX COMPRISING A BASE” (BASF SE, priority 2011, published 2014)
